# Source: the NIST ThermoML archive (doi:10.1016/j.jct.2009.06.021)
# ± gives the expanded uncertainty stated by the source.
# Test: xn = mol fraction of the nth substance listed
# Conditions: for surface tension liquid-gas: Maximal bubble pressure; for mass density: 101 kPa, Liquid, Vibrating tube method
smiles,measurement,setting,value
ClC(Cl)(Cl)Cl [tetrachloromethane] + C[S+](C)[O-],surface tension liquid-gas,"298.15 K, x1 = 0.0994",38.6 ± 0.4 mN/m
same,surface tension liquid-gas,"298.15 K, x1 = 0.1969",34.6 ± 0.3 mN/m
same,surface tension liquid-gas,"298.15 K, x1 = 0.2513",32.9 ± 0.3 mN/m
same,surface tension liquid-gas,"298.15 K, x1 = 0.3299",30.8 ± 0.3 mN/m
same,surface tension liquid-gas,"298.15 K, x1 = 0.383",29.7 ± 0.3 mN/m
same,surface tension liquid-gas,"298.15 K, x1 = 0.5159",27.8 ± 0.3 mN/m
same,surface tension liquid-gas,"298.15 K, x1 = 0.6043",26.8 ± 0.3 mN/m
same,surface tension liquid-gas,"298.15 K, x1 = 0.6909",25.9 ± 0.3 mN/m
same,surface tension liquid-gas,"298.15 K, x1 = 0.7493",25.8 ± 0.3 mN/m
same,surface tension liquid-gas,"298.15 K, x1 = 0.8663",25.4 ± 0.3 mN/m
same,mass density,"298.15 K, x1 = 0.0674",1141.26 ± 0.37 kg/m3
same,mass density,"298.15 K, x1 = 0.101",1163.32 ± 0.39 kg/m3
same,mass density,"298.15 K, x1 = 0.1349",1185.11 ± 0.4 kg/m3
same,mass density,"298.15 K, x1 = 0.1643",1203.27 ± 0.42 kg/m3
same,mass density,"298.15 K, x1 = 0.2133",1232.98 ± 0.44 kg/m3
same,mass density,"298.15 K, x1 = 0.3045",1287.19 ± 0.48 kg/m3
same,mass density,"298.15 K, x1 = 0.4641",1370.58 ± 0.56 kg/m3
same,mass density,"298.15 K, x1 = 0.6022",1433.93 ± 0.61 kg/m3
same,mass density,"298.15 K, x1 = 0.7132",1481.07 ± 0.66 kg/m3
same,mass density,"298.15 K, x1 = 0.7604",1499.6 ± 0.68 kg/m3
same,mass density,"298.15 K, x1 = 0.8683",1539.93 ± 0.72 kg/m3
same,mass density,"298.15 K, x1 = 0.913",1555.64 ± 0.73 kg/m3
same,surface tension liquid-gas,"303.15 K, x1 = 0.0994",38 ± 0.4 mN/m
same,surface tension liquid-gas,"303.15 K, x1 = 0.1969",34.2 ± 0.3 mN/m
same,surface tension liquid-gas,"303.15 K, x1 = 0.2513",32.6 ± 0.3 mN/m
same,surface tension liquid-gas,"303.15 K, x1 = 0.3299",30.4 ± 0.3 mN/m
same,surface tension liquid-gas,"303.15 K, x1 = 0.383",29.2 ± 0.3 mN/m
same,surface tension liquid-gas,"303.15 K, x1 = 0.5159",27.1 ± 0.3 mN/m
same,surface tension liquid-gas,"303.15 K, x1 = 0.6043",26.2 ± 0.3 mN/m
same,surface tension liquid-gas,"303.15 K, x1 = 0.6909",25.3 ± 0.3 mN/m
same,surface tension liquid-gas,"303.15 K, x1 = 0.7493",25.1 ± 0.3 mN/m
same,surface tension liquid-gas,"303.15 K, x1 = 0.8663",24.6 ± 0.3 mN/m
same,mass density,"303.15 K, x1 = 0.0674",1135.93 ± 0.37 kg/m3
same,mass density,"303.15 K, x1 = 0.101",1157.83 ± 0.38 kg/m3
same,mass density,"303.15 K, x1 = 0.1349",1179.45 ± 0.4 kg/m3
same,mass density,"303.15 K, x1 = 0.1643",1197.47 ± 0.41 kg/m3
same,mass density,"303.15 K, x1 = 0.2133",1226.93 ± 0.43 kg/m3
same,mass density,"303.15 K, x1 = 0.3045",1280.68 ± 0.48 kg/m3
same,mass density,"303.15 K, x1 = 0.4641",1363.35 ± 0.55 kg/m3
same,mass density,"303.15 K, x1 = 0.6022",1425.99 ± 0.61 kg/m3
same,mass density,"303.15 K, x1 = 0.7132",1472.61 ± 0.65 kg/m3
same,mass density,"303.15 K, x1 = 0.7604",1490.94 ± 0.67 kg/m3
same,mass density,"303.15 K, x1 = 0.8683",1530.74 ± 0.71 kg/m3
same,mass density,"303.15 K, x1 = 0.913",1546.21 ± 0.72 kg/m3
same,surface tension liquid-gas,"308.15 K, x1 = 0.0994",37.4 ± 0.4 mN/m
same,surface tension liquid-gas,"308.15 K, x1 = 0.1969",33.4 ± 0.3 mN/m
same,surface tension liquid-gas,"308.15 K, x1 = 0.2513",31.8 ± 0.3 mN/m
same,surface tension liquid-gas,"308.15 K, x1 = 0.3299",29.8 ± 0.3 mN/m
same,surface tension liquid-gas,"308.15 K, x1 = 0.383",28.7 ± 0.3 mN/m
same,surface tension liquid-gas,"308.15 K, x1 = 0.5159",26.6 ± 0.3 mN/m
same,surface tension liquid-gas,"308.15 K, x1 = 0.6043",25.6 ± 0.3 mN/m
same,surface tension liquid-gas,"308.15 K, x1 = 0.6909",24.7 ± 0.3 mN/m
same,surface tension liquid-gas,"308.15 K, x1 = 0.7493",24.5 ± 0.3 mN/m
same,surface tension liquid-gas,"308.15 K, x1 = 0.8663",24.2 ± 0.3 mN/m
same,mass density,"308.15 K, x1 = 0.0674",1127.96 ± 0.35 kg/m3
same,mass density,"308.15 K, x1 = 0.101",1150.79 ± 0.38 kg/m3
same,mass density,"308.15 K, x1 = 0.1349",1172.11 ± 0.39 kg/m3
same,mass density,"308.15 K, x1 = 0.1643",1192.66 ± 0.41 kg/m3
same,mass density,"308.15 K, x1 = 0.2133",1222.1 ± 0.43 kg/m3
same,mass density,"308.15 K, x1 = 0.3045",1273.53 ± 0.47 kg/m3
same,mass density,"308.15 K, x1 = 0.4641",1355.26 ± 0.54 kg/m3
same,mass density,"308.15 K, x1 = 0.6022",1418.04 ± 0.6 kg/m3
same,mass density,"308.15 K, x1 = 0.7132",1464.13 ± 0.64 kg/m3
same,mass density,"308.15 K, x1 = 0.7604",1482.25 ± 0.66 kg/m3
same,mass density,"308.15 K, x1 = 0.8683",1521.44 ± 0.7 kg/m3
same,mass density,"308.15 K, x1 = 0.913",1536.79 ± 0.71 kg/m3
same,surface tension liquid-gas,"313.15 K, x1 = 0.0994",36.8 ± 0.4 mN/m
same,surface tension liquid-gas,"313.15 K, x1 = 0.1969",33 ± 1 mN/m
same,surface tension liquid-gas,"313.15 K, x1 = 0.2513",31.4 ± 0.3 mN/m
same,surface tension liquid-gas,"313.15 K, x1 = 0.3299",29.2 ± 0.3 mN/m
same,surface tension liquid-gas,"313.15 K, x1 = 0.383",28.1 ± 0.3 mN/m
same,surface tension liquid-gas,"313.15 K, x1 = 0.5159",26 ± 1 mN/m
same,surface tension liquid-gas,"313.15 K, x1 = 0.6043",25 ± 0.3 mN/m
same,surface tension liquid-gas,"313.15 K, x1 = 0.6909",24.3 ± 0.3 mN/m
same,surface tension liquid-gas,"313.15 K, x1 = 0.7493",23.9 ± 0.3 mN/m
same,surface tension liquid-gas,"313.15 K, x1 = 0.8663",23.7 ± 0.3 mN/m
same,mass density,"313.15 K, x1 = 0.0499",1116.12 ± 0.34 kg/m3
same,mass density,"313.15 K, x1 = 0.101",1146.87 ± 0.37 kg/m3
same,mass density,"313.15 K, x1 = 0.1349",1168.13 ± 0.39 kg/m3
same,mass density,"313.15 K, x1 = 0.1643",1185.85 ± 0.4 kg/m3
same,mass density,"313.15 K, x1 = 0.2133",1214.87 ± 0.42 kg/m3
same,mass density,"313.15 K, x1 = 0.3045",1267.49 ± 0.47 kg/m3
same,mass density,"313.15 K, x1 = 0.4641",1348.78 ± 0.54 kg/m3
same,mass density,"313.15 K, x1 = 0.6022",1410.05 ± 0.59 kg/m3
same,mass density,"313.15 K, x1 = 0.7132",1455.61 ± 0.63 kg/m3
same,mass density,"313.15 K, x1 = 0.7604",1473.5 ± 0.65 kg/m3
same,mass density,"313.15 K, x1 = 0.8683",1512.23 ± 0.69 kg/m3
same,mass density,"313.15 K, x1 = 0.913",1527.34 ± 0.7 kg/m3
